{"source": "paper PMC10518340", "about": "“Secreted LRPAP1 binds and triggers IFNAR1 degradation to facilitate virus evasion from cellular innate immunity” (Signal Transduction and Targeted Therapy, 2023)", "key": {"IFNAR1 [1]": {"system": "IFNAR1", "experiment": "IFNAR1 protein level, immunoblot, HEK-293T cells", "assay_type": "cell-based, human"}, "LRPAP1 [2]": {"system": "LRPAP1", "assay_type": "cell-based, human"}, "LRPAP1 [3]": {"system": "LRPAP1", "assay_type": "cell-based, human", "remark": "listed apart in the source"}, "LRP1": {"system": "LRP1", "assay_type": "cell-based, human"}, "IFNAR1 [4]": {"system": "IFNAR1", "experiment": "IFNAR1 endocytosis, EEA1 immunofluorescence, HEK-293T cells", "assay_type": "cell-based, human", "settings": "200 nM, 1 h", "experimental": "Cellular expression of IFNAR1, viral protein VP1 and LRPAP1 at HEK-293T cells with and without the stimulation of EV71, the recombinant LRPAP1, and overexpression of LRPAP1 or 2A, were examined by the following protocol. Briefly, HEK-293T cells were washed twice with PBS and fixed with 4% paraformaldehyde for 20 min. Afterwards, cells were incubated with blocking buffer (10% (v/v) FBS, 1% (v/v) BSA, and 0.1% (v/v) Triton in PBS) for 2 h. Cells were then incubated with specific antibodies. […] After washing with PBST (PBS + 0.1% Tween-20) for 3 times, cells were labeled with Alexa Fluor 488 (green), or Alexa Fluor 594 (red) conjugated secondary antibody (dilution of 1:1000) (Life Technologies) for 1 h at 4 °C with shaking. After three times washing with PBST (PBS + 0.1% Tween-20), cells were followed by nuclei staining with DAPI (0.5 μg/ml) for 5 min at room temperature. Finally, cells were mounted with Prolong Gold Antifade Reagent on slides. Images were taken by Carl Zeiss LSM 880 confocal microscope using 63× oil objective and analyzed by ZEN software."}, "[5]": {"system": "extracellular domain of IFNAR1", "experiment": "Pull-down / co-immunoprecipitation of LRPAP1 with IFNAR1", "assay_type": "binding", "settings": "Residues 1–436", "experimental": "The interaction of LRPAP1, LRP1 and IFNAR1 was examined by immunoprecipitation using a protocol described as followed. HEK293T cells were cultured at around 90% confluence in a 100 mm tissue culture dish. Cells were washed with 10 ml of PBS and harvested in 0.5 ml of ice-cold lysis buffer ([…], pH 7.4, 1% SDS, 1% NP-40) and Protease Cocktail (Roche) and PhoSTOP (Roche). The total extract was pre-cleared with 10 μg normal rabbit IgG (Cell signaling, 2729 S) and 20 μl of protein A/G plus-agarose (Santa Cruz Biotechnology) at 4 °C on a rotor for 1 h. After gently removed protein A/G agarose beads by centrifugation at 500 rcf for 2 min, 0.2 mg of total extract was immunoprecipitated with the indicated antibodies overnight at 4 °C on a rotor. Approximately 20 μl of protein A/G plus-agarose (Santa Cruz Biotechnology) was added at 4 °C for one hour. Then, the beads were washed three times with washing buffer (lysis buffer contained 0.1% NP-40). The pellet was suspended with 40 μl PBS and 10 μl of 5× SDS-PAGE loading buffer and the samples were boiled for 10 min.\nThe interaction of LRPAP1, LRP1 and IFNAR1 was examined by immunoprecipitation using a protocol described as followed. HEK293T cells were cultured at around 90% confluence in a 100 mm tissue culture dish. […]"}, "EV71 [6]": {"system": "EV71", "experiment": "EV71 entry and uncoating, HEK-293T cells", "assay_type": "cell-based", "settings": "pre-treated on ice 1 h, EV71 MOI 50, within 1 h"}, "EV71 [7]": {"system": "EV71", "experiment": "EV71 infection of RD cells (viral RNA, titer, viral protein, CPE)"}, "IFNAR1 [8]": {"system": "IFNAR1", "experiment": "IFNAR1 protein level, immunoblot / immunofluorescence, RD cells", "assay_type": "cell-based", "settings": "RD cells, 200 nM, 1 h"}, "IFNAR1 [9]": {"system": "IFNAR1", "experiment": "LRPAP1 stimulated mouse brain ex vivo, membrane IFNAR1 immunoblot", "parameters": "species or system C57BL/6 mouse", "settings": "200 nM, ACSF, 1 h", "experimental": "(§1) Tissues were washed twice with PBS and made into homogenate by 2 ml grinder. Membrane proteins were separated from cytosol protein extraction by using the protocol of membrane protein extraction kit (89842, Thermo)."}, "IFNAR1 [10]": {"system": "IFNAR1", "experiment": "Flow cytometry, cell surface IFNAR1 on 4T1 cells", "assay_type": "cell-based, murine", "settings": "live 4T1 cells, 200 nM", "experimental": "(§2) The surface IFNAR1 was monitored by flow cytometry as previous described.[60] Briefly, murine breast cancer cells (4T1) were stained with APC-conjugated IFNAR1 (Biolegend #127314, 1:100) on ice for 30 min. […] Fluorescence-activated cells were then sorted and analyzed by Beckman Coulter CytoFLEX S Flow cytometer ([…]). The result was analyzed by FlowJo (version 10.5.3).\nas §2, with “described^63.” for “described.[60]”"}, "IFNAR1 [11]": {"system": "IFNAR1", "experiment": "IFNAR1 phosphorylation immunoblot, HEK-293T cells", "assay_type": "cell-based, human", "settings": "extracellular rLRPAP1, 1 h"}, "IFNAR1 [12]": {"system": "IFNAR1", "experiment": "IFNAR1 and LRPAP1 in membrane and cytosol fractions, HEK-293T cells", "assay_type": "cell-based, human", "settings": "200 nM, 1 min to 10 min", "experimental": "Then proteins were subjected to Western blotting. […] Hes1 (Abcam, ab71559).\nas §1"}, "EV71 [13]": {"system": "EV71", "experiment": "EV71 infection of newborn C57BL/6 mice", "assay_type": "in vivo", "experimental": "The C57BL/6 mice were purchased and were bred in the City University of Hong Kong. All animal experiment protocols were approved by the Ethics Committee of City University of Hong Kong with the license from Department of Health, Hong Kong (18-69 in DH/SHS/8/2/5 Pt.3). The studies were performed in accordance with the approved protocol. […] The neurological status and behavior of each mouse was measured every day. On day 7, mice were sacrificed, and the intestine and blood were collected for viral testing."}, "HCoV-OC43": {"system": "HCoV-OC43", "experiment": "HCoV-OC43 infection of RD cells (viral RNA, TCID50, CPE)", "settings": "pre-treated 1 h (or siRNA 24 h), MOI 1, 72 h"}, "IFNAR1 [14]": {"system": "IFNAR1", "experiment": "Effect of lysosome / proteasome inhibitors on LRPAP1-induced IFNAR1 reduction, HEK-293T cells", "settings": "4 h, MA 20 mM; for effect on LRPAP1-induced IFNAR1 reduction: bafilomycin 1 μM, MG132 40 μM, leupeptin 50 μM"}}, "note": "“Also recorded” adds a separate entry of the source.", "data": [{"compound": "SARS-CoV-2 3CL^pro: SARS-CoV-2 main protease, transfected pCMV-SARS-CoV-2-3CL", "values": [{"measurement": "IFNAR1 level", "setting": "IFNAR1 [1]", "result": "decreased IFNAR1 level; also recorded: expression of IFNAR1 decreased"}, {"measurement": "extracellular LRPAP1 level", "setting": "LRPAP1 [2]", "result": "extracellular LRPAP1 increase"}, {"measurement": "LRPAP1 expression", "setting": "LRPAP1 [3]", "result": "increased LRPAP1 expression"}, {"measurement": "LRP1 protein level", "setting": "LRP1", "result": "decreased protein level"}]}, {"compound": "rLRPAP1: recombinant LRPAP1 from pQTEV-LRPAP1 expressed in E. coli", "values": [{"measurement": "IFNAR1 endocytosis (EEA1 level)", "setting": "IFNAR1 [4]", "result": "increased level of early endosome marker (EEA1)"}, {"measurement": "direct binding to IFNAR1 extracellular domain (pull-down)", "setting": "[5]", "result": "directly bound with the extracellular domain of IFNAR1"}, {"measurement": "IFNAR1 level on rLRPAP1 treatment", "setting": "IFNAR1 [1]; 50 nM, 1 h", "result": "marginal detectable level"}, {"measurement": "IFNAR1 level on rLRPAP1 treatment", "setting": "IFNAR1 [1]; 200 nM, 1 h", "result": "undetectable level"}, {"measurement": "IFNAR1 level on rLRPAP1 treatment", "setting": "IFNAR1 [1]; within 15 min, dose-dependent", "result": "rapidly decreased within 15 min in a rLRPAP1 dose-dependent manner"}, {"measurement": "EV71 entry and uncoating rate", "setting": "EV71 [6]", "result": "promoted EV71 entry and uncoating rate within 1 h"}, {"measurement": "EV71 infection", "setting": "EV71 [7]; RD cells, 9 h, plasmid, recombinant protein or peptide pre-treatment, viral RNA / titer", "result": "significantly promoted EV71 infection"}, {"measurement": "EV71 induced CPE", "setting": "EV71 [7]; antibody added 3 h post infection (MOI 10, 6 h), rLRPAP1 200 nM pre-treatment 1 h", "result": "significantly promoted EV71 infection and EV71-induced CPE"}, {"measurement": "IFNAR1 in the cell membrane (immunofluorescence)", "setting": "IFNAR1 [8]", "result": "sharply decreased in the cell membrane"}, {"measurement": "membrane IFNAR1 in mouse brain", "setting": "IFNAR1 [9]", "result": "significantly lower"}, {"measurement": "cell surface IFNAR1", "setting": "IFNAR1 [10]", "result": "significantly reduced cell surface IFNAR1"}, {"measurement": "phosphorylated IFNAR1", "setting": "IFNAR1 [11]", "result": "promoted in an extracellular rLRPAP1 dose-dependent manner"}, {"measurement": "IFNAR1 level in membrane / cytosol fractions", "setting": "IFNAR1 [12]", "result": "IFNAR1 consistently decreased with time"}, {"measurement": "rLRPAP1 enrichment in membrane fractions", "setting": "IFNAR1 [12]", "result": "gradually enriched in the membrane fractions"}, {"measurement": "survival rate", "setting": "EV71 [13]; co-injected EV71 and rLRPAP1, 7 days", "result": 75, "unit": "%"}, {"measurement": "mice with severe neurological deficits", "setting": "EV71 [13]; co-injected EV71 and rLRPAP1, after two injections (Day 3)", "result": 50, "unit": "%"}, {"measurement": "physical condition of mice", "setting": "EV71 [13]; co-injected EV71 and rLRPAP1, i.p. twice per week", "result": "severe physical disharmony"}, {"measurement": "EV71 infection and disease in mice", "setting": "EV71 [13]; i.p. EV71 (2*10^8 PFU) + rLRPAP1 (200 nM) twice per week", "result": "potently enhanced EV71 infection and exacerbated the disease in newborn C57BL/6 mice"}, {"measurement": "HCoV-OC43 intracellular RNA level", "setting": "HCoV-OC43", "result": "increased significantly"}, {"measurement": "HCoV-OC43 viral titer (TCID50)", "setting": "HCoV-OC43", "result": "increased significantly"}]}, {"compound": "CN", "note": "[methylamine]", "values": [{"measurement": "effect on LRPAP1-induced IFNAR1 reduction", "setting": "IFNAR1 [14]", "result": "prohibited by lysosome inhibitors"}, {"measurement": "protection of IFNAR1 from degradation", "setting": "IFNAR1 [14]; ubiquitin, LRPAP1, IFNAR1 expressed", "result": "IFNAR1 was protected from degradation"}]}, {"compound": "CO/C1=C\\C(C)=C\\[C@@H](C)[C@@H](O)[C@@H](C)C/C(C)=C/C=C/[C@H](OC)[C@@H]([C@@H](C)[C@@H](O)[C@H](C)[C@@]2(O)C[C@@H](O)[C@H](C)[C@@H](C(C)C)O2)OC1=O", "note": "[bafilomycin]", "values": [{"measurement": "effect on LRPAP1-induced IFNAR1 reduction", "setting": "IFNAR1 [14]", "result": "prohibited by lysosome inhibitors"}]}]}
